Results published in publication PMC5570892, “Indole-based perenosins as highly potent HCl transporters and potential anti-cancer agents” (Scientific Reports, 2017).

Key:
[1] = Cationophore coupled KCl efflux ISE assay (valinomycin or monensin); type: biochemical; settings: perenosins 0.1 mol%, prodigiosin 0.01 mol%, monensin 0.1 mol%, pH 7.2
Method: Herein, we employed two recently reported complementary cationophore coupled assays[19] to unambiguously confirm H^+/Cl^− symport facilitated by perenosins is a strictly inseparable process. Briefly, unilamellar vesicles were prepared with an internal solution of KCl (300 mM) and an external solution of K2SO4 (150 mM), buffered to pH 7.2 with potassium phosphate salts (5 mM). The naturally occurring cationophores valinomycin and monensin were either added alone, or in combination with a perenosin and the resulting chloride efflux, driven by a large chloride concentration gradient, was monitored using a chloride ISE. […] In contrast, monensin functions as an electroneutral transporter. […]
Figure S130. […] The final chloride efflux reading was taken a t 9 mins and was used as the 100% chloride efflux value. […]
The lipid stock solution was diluted with the external buffer solution to a standard volume (5 mL), to afford a solution with a lipid concentration of 1 mM. […] The compounds were added as a DMSO solution (0.1 mol% (with respect to lipid), 10 μL) to start the experiment and the resulting chloride efflux was monitored using a chloride selective electrode over 5 minutes. After this time, detergent (50 μL of Triron X-100 (11 w%) in H2O:DMSO (7:1 v/v)) was added to lyse the vesicles and after 7 minutes a final chloride efflux reading was taken. […]

[2] = Stability in aqueous solution by UV-Vis; type: physicochemical; settings: hexafluorophosphate buffered DMSO:water 50:50, pH 7.4, after 6 hours
Method: S7.1 Stability in Aqueous Solution
Stability studies were performed for the perenosins in aqueous solution using UV-Vis spectroscopy to probe the lifetime of compounds 1d and 2-8 over the course of the transport experiments. The receptors (10 μL, 25 mM) were added to a hexafluorophosphate buffered (100 mM) DMSO:water 50:50 solution (4990 μL) and the pH was adjusted to either 7.2 or 4.6 using hexafluorophosphoric acid. Spectra were collected at 1 minute intervals over a period of 30 minutes.
Figure S50. Absorbance spectra taken over 30 minutes of 1d (25 mM) in a hexafluorophosphate buffered (100 mM) DMSO:water 50:50 mixture. a) pH 7.2 b) pH 4.6 […]
Figure S51. Absorbance spectra taken over 30 minutes of 2 (25 mM) in a hexafluorophosphate […]
The spectra obtained at pH 7.2 for compounds 1d and 2-8 show no notable change in the […]
conditions. However, the spectra obtained at pH 4.6 for compounds 1d and 2-4 show a decreasing peak at ~400 nm corresponding to the perenosins, and an increasing peak at ~300 nm corresponding to the breakdown product (both are marked with an arrow). The change in spectra […]
Spectra were collected periodically over 72 hours to monitor the change in the UV -vis absorbance.
Figure S58. Absorbance spectra taken periodically over 72 hours of 1d (25 mM) in a hexafluorophosphate buffered (100 mM) DMSO:water 50:50 mixture at pH 7.4 […]

[3] = Stability in vesicles by UV-Vis; type: physicochemical; settings: POPC lipid solution, 2 hours
Method: The spectra obtained over the course of 72 hours for 1d, 2 and 4-8 show similar trends, 3 was not tested because it was unavailable. All spectra show a decrease in the peak at around 400 nm after 6 hours and an increase in the peak at around 300 nm after 72 hours. These changes in spectra […]
72 hours. The absorbance for 6 decreases dramatically for the readings after 6 hours because most […]
S7.2 Stability in Vesicles
Stability studies were performed for the perenosins in vesicles using UV-Vis spectroscopy to probe the lifetime of compounds 1d and 2-8 at pH 7.2 and pH 4.6. Unilamellar vesicles were prepared using previously reported literature procedures7-9. A lipid film of POPC (1-palmitoyl-2-oleoyl-sn-glycero-3-phosphocholine) was prepared from a chloroform solution under reduced pressure and then dried under vacuum for 4 or more hours. The lipid film was rehydrated by vortexing with a solution of phosphate buffered (5 mM) sodium chloride (500 mM). The lipid suspension was then subjected to 9 freeze-thaw cycles and left to rest at room temperature for 30 minutes. After this, the suspension was extruded 25 times through a 400 nm polycarbonate membrane resulting in unilamellar vesicles of a mean diameter of 400 nm. […]
Figure S65. Absorbance spectra taken over 2 hours of 1d (25 mM) in a sodium chloride (500 mM) phosphate buffered (5 mM) lipid solution. a) pH 7.2 b) pH 4.6 […]

| SMILES | chloride efflux coupled to monensin [1] | also measured |
| --- | --- | --- |
| CCCCCc1cc2cc(C)cc(/N=C/c3[nH]c4ccccc4c3C)c2[nH]1 [Perenosin 8] | do not facilitate chloride transport | – |
| CCCCCc1cc2cc(C)cc(/N=C/c3[nH]c(C)c(CCCCC)c3C)c2[nH]1 [Perenosin 6] | – | solubility during 72 h stability study [2]: poor solubility |
| CCCCCc1cc(/N=C/c2[nH]c(C)cc2C)c2[nH]ccc2c1 [Perenosin 1d] | – | stability in vesicles at pH 7.2 [3]: stable |
| CCCCCc1cc(/N=C/c2[nH]c3ccccc3c2C)c2[nH]ccc2c1 [Perenosin 7] | do not facilitate chloride transport | – |
